From PubChem BioAssay (NCI)
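These data come from cells grown in 96-well plates and exposed to compound for 48 hours at five concentrations. At the TGI there is no net growth.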

Experiments:
Test in all cases: NCI-60 cell line screen, 48 h
786-0 renal = test system: 786-0 renal
A498 renal = test system: A498 renal
A549 NSCLC = test system: A549 NSCLC
ACHN renal = test system: ACHN renal
CAKI-1 renal = test system: CAKI-1 renal
CCRF-CEM leukemia = test system: CCRF-CEM leukemia
COLO 205 colon = test system: COLO 205 colon
DLD-1 colon = test system: DLD-1 colon
DMS 114 small cell lung = test system: DMS 114 small cell lung
DMS 273 small cell lung = test system: DMS 273 small cell lung
EKVX NSCLC = test system: EKVX NSCLC
HCC-2998 colon = test system: HCC-2998 colon
HCT-116 colon = test system: HCT-116 colon
HCT-15 colon = test system: HCT-15 colon
HL-60(TB) leukemia = test system: HL-60(TB) leukemia
HOP-18 NSCLC = test system: HOP-18 NSCLC
HOP-62 NSCLC = test system: HOP-62 NSCLC
HOP-92 NSCLC = test system: HOP-92 NSCLC
HT29 colon = test system: HT29 colon
IGROV1 ovarian = test system: IGROV1 ovarian
K-562 leukemia = test system: K-562 leukemia
KM12 colon = test system: KM12 colon
KM20L2 colon = test system: KM20L2 colon
LOX IMVI melanoma = test system: LOX IMVI melanoma
LXFL 529 NSCLC = test system: LXFL 529 NSCLC
M14 melanoma = test system: M14 melanoma
M19-MEL melanoma = test system: M19-MEL melanoma
MALME-3M melanoma = test system: MALME-3M melanoma
MOLT-4 leukemia = test system: MOLT-4 leukemia
NCI-H226 lung = test system: NCI-H226 lung
NCI-H23 lung = test system: NCI-H23 lung
NCI-H460 lung = test system: NCI-H460 lung
NCI-H522 lung = test system: NCI-H522 lung
OVCAR-3 ovarian = test system: OVCAR-3 ovarian
OVCAR-4 ovarian = test system: OVCAR-4 ovarian
OVCAR-5 ovarian = test system: OVCAR-5 ovarian
OVCAR-8 ovarian = test system: OVCAR-8 ovarian
RPMI-8226 leukemia = test system: RPMI-8226 leukemia
RXF 393 renal = test system: RXF 393 renal
RXF-631 renal = test system: RXF-631 renal
SF-268 CNS = test system: SF-268 CNS
SF-295 CNS = test system: SF-295 CNS
SF-539 CNS = test system: SF-539 CNS
SK-MEL-2 melanoma = test system: SK-MEL-2 melanoma
SK-MEL-28 melanoma = test system: SK-MEL-28 melanoma
SK-MEL-5 melanoma = test system: SK-MEL-5 melanoma
SK-OV-3 ovarian = test system: SK-OV-3 ovarian
SN12C renal = test system: SN12C renal
SNB-19 CNS = test system: SNB-19 CNS
SNB-75 CNS = test system: SNB-75 CNS
SNB-78 CNS = test system: SNB-78 CNS
SR leukemia = test system: SR leukemia
SW-620 colon = test system: SW-620 colon
TK-10 renal = test system: TK-10 renal
U251 CNS = test system: U251 CNS
UACC-257 melanoma = test system: UACC-257 melanoma
UACC-62 melanoma = test system: UACC-62 melanoma
UO-31 renal = test system: UO-31 renal
XF 498 CNS = test system: XF 498 CNS

CCCCCCCCCC1CC(=O)Oc2cccc(O)c21 (centres undefined)
TGI (786-0 renal): 30.6 µM
TGI (A498 renal): 42 µM
TGI (A549 NSCLC): 83.4 µM
TGI (ACHN renal): > 84.8 µM
TGI (CAKI-1 renal): 76.3 µM
TGI (CCRF-CEM leukemia): 77.1 µM
TGI (COLO 205 colon): 31.3 µM
TGI (DLD-1 colon): > 71 µM
TGI (DMS 114 small cell lung): 45.7 µM
TGI (DMS 273 small cell lung): 19.3 µM
TGI (EKVX NSCLC): > 84.6 µM
TGI (HCC-2998 colon): > 20.2 µM
TGI (HCT-116 colon): > 100 µM
TGI (HCT-15 colon): 57.1 µM
TGI (HL-60(TB) leukemia): 62 µM
TGI (HOP-18 NSCLC): 97.3 µM
TGI (HOP-62 NSCLC): 80.9 µM
TGI (HOP-92 NSCLC): > 70.3 µM
TGI (HT29 colon): 53.8 µM
TGI (IGROV1 ovarian): 55.2 µM
TGI (K-562 leukemia): 66.3 µM
TGI (KM12 colon): 39.1 µM
TGI (KM20L2 colon): > 100 µM
TGI (LOX IMVI melanoma): 35.6 µM
TGI (LXFL 529 NSCLC): 63.2 µM
TGI (M14 melanoma): 49.6 µM
TGI (M19-MEL melanoma): > 96.7 µM
TGI (MALME-3M melanoma): 38.1 µM
TGI (MOLT-4 leukemia): > 85.3 µM
TGI (NCI-H226 lung): 99.5 µM
TGI (NCI-H23 lung): 84.2 µM
TGI (NCI-H460 lung): 30.7 µM
TGI (NCI-H522 lung): 45.3 µM
TGI (OVCAR-3 ovarian): 24.9 µM
TGI (OVCAR-4 ovarian): > 78.3 µM
TGI (OVCAR-5 ovarian): > 85.4 µM
TGI (OVCAR-8 ovarian): > 81.2 µM
TGI (RPMI-8226 leukemia): 83.4 µM
TGI (RXF 393 renal): 46.6 µM
TGI (RXF-631 renal): 20.2 µM
TGI (SF-268 CNS): > 100 µM
TGI (SF-295 CNS): > 83.3 µM
TGI (SF-539 CNS): 71.7 µM
TGI (SK-MEL-2 melanoma): > 72.7 µM
TGI (SK-MEL-28 melanoma): > 70.9 µM
TGI (SK-MEL-5 melanoma): 35.2 µM
TGI (SK-OV-3 ovarian): > 92.2 µM
TGI (SN12C renal): 15.7 µM
TGI (SNB-19 CNS): > 88.2 µM
TGI (SNB-75 CNS): > 100 µM
TGI (SNB-78 CNS): > 100 µM
TGI (SR leukemia): 64.2 µM
TGI (SW-620 colon): > 69.4 µM
TGI (TK-10 renal): > 100 µM
TGI (U251 CNS): 25.4 µM
TGI (UACC-257 melanoma): > 100 µM
TGI (UACC-62 melanoma): 98.3 µM
TGI (UO-31 renal): 75.1 µM
TGI (XF 498 CNS): 49.7 µM
